Laboratory results: ChEMBL document CHEMBL4715877, “Asperginols A and B, Diterpene Pyrones, from an Aspergillus sp. and the Structure Revision of Previously Reported Analogues” (J Nat Prod, 2020)

Legend:
Type in all cases: functional, cell-based
HCT-116 = assay: Cytotoxicity against human HCT-116 cells assessed as reduction in cell viability after 72 hrs by MTT assay
HepG2 = assay: Cytotoxicity against human HepG2 cells assessed as reduction in cell viability after 72 hrs by MTT assay
HT-29 = assay: Cytotoxicity against human HT-29 cells assessed as reduction in cell viability after 72 hrs by MTT assay

Row | SMILES | IC50 (HCT-116) | IC50 (HepG2) | IC50 (HT-29; ht-29) | IC50 (HT-29; Homo sapiens, HT-29, 72 h, read-out: IC50) [µM]
1 | C=C1[C@H](O)C[C@@H]2[C@](C)(CC[C@H]3OC(C)(C)[C@@H](OC(C)=O)CC[C@]23C)[C@@H]1Cc1c(O)c(C)c(C)oc1=O | Not Active | Not Active | Not Active | –
2 | C=C1[C@H](O)C[C@@H]2[C@](C)(CC[C@H]3OC(C)(C)[C@@H](O)CC[C@]23C)[C@@H]1Cc1c(O)c(C)c(C)oc1=O | Not Active | Not Active | Not Active | –
3 | C=C1[C@H](O)C[C@@H]2[C@](C)(CC[C@H]3OC(C)(C)[C@@H](OC(=O)/C=C/C=C/C=C/[C@@H](C)CC)CC[C@]23C)[C@@H]1Cc1c(O)c(C)c(C)oc1=O | Not Active | Not Active | – | 7.6
4 | C=C1CC[C@@H]2[C@](C)(CC[C@H]3OC(C)(C)[C@@H](O)CC[C@]23C)[C@@H]1Cc1c(O)c(C)c(C)oc1=O | Not Active | Not Active | Not Active | –
5 | C=C1[C@H](O)C[C@@H]2[C@](C)(CC[C@H]3OC(C)(C)[C@@H](OC(=O)/C=C/C=C/[C@@H](C)CC)CC[C@]23C)[C@@H]1Cc1c(O)c(C)c(C)oc1=O | Not Active | Not Active | Not Active | –
6 | C=C1CC[C@@H]2[C@](C)(CC[C@H]3OC(C)(C)[C@@H](OC(=O)/C=C/C=C/[C@@H](C)CC)CC[C@]23C)[C@@H]1Cc1c(O)c(C)c(C)oc1=O | Not Active | Not Active | Not Active | –
